# Experimental data: patent US20060204443A1, “Methods for tumor treatment using dendrimer conjugates” (The Government of the USA as represented by the Secretary …, priority 2005, published 2006)
# Entries after “also recorded” stand apart in the source; their conditions may differ.
# Legend:
# [1] = system: deep lymphatic system (lymph nodes, thoracic duct); assay: Whole-body dynamic 3D-micro-MRL after intracutaneous injection, normal mice (Examples 2, 3); format: in vivo; settings: for Number of Mice in Which the Thoracic Duct was Visualized/Number of Mice Examined: Normal Mice, 0.1 μmolGd intracutaneously; for Axillary lymph node-to-background (muscle) signal intensity ratio / Axillary lymph node-to-liver signal intensity ratio: all time points examined; for Axillary lymph node-to-background (muscle) signal intensity ratio: FIG. 11A; for Axillary lymph node-to-liver signal intensity ratio: FIG. 11B
# Experimental: (§1) The mice were anesthetized with 1.15 mg sodium pentobarbital (Dainabot, Osaka, Japan) by intraperitoneal injection, and then injected intracutaneously with 0.1 μmolGd of PAMAM-G8, DAB-G5, PAMAM-G4, Gadomer-17, or GPDM into four middle phalanges in all four extremities. Dynamic micro-MR images were obtained using a 1.5-Tesla superconductive magnet unit (Signa LX, General Electric Medical System, Milwaukee, Wis.) with a round birdcage type coil of 3 cm diameter fixed by a custom-made coil holder. Four to eight female mice (7 weeks old, 18-21 g body weight) in each group were used and each contrast agent was prepared at least three separate times for these imaging studies. The mice were wrapped with gauze to stabilize their body temperature and were placed at the center of the coils.
# (§2) A 3D-fast spoiled gradient echo (3D-fastSPGR (efgre3d package; Signa Horizon, GE); repetition time/echo time 28.5/7.9 msec; inversion time 65 msec; 31.2 kHz, flip angle 30°, four excitations; 40 slice-encoding steps; scan time 7 min 36 seconds) with chemical shift fat-suppression was used 10, 20, 30, and 45 min after injection of the contrast agents. The coronal images were reconstructed with 0.6-mm section thickness at every 0.3-mm. The field of view was 6×3 cm and the size of the matrix was 512×256. The intensities of the regions of interest (for example, a whole axillary lymph node, and the liver) were measured, and then the time-intensity curves analyzed. The data were expressed as the axillary lymph node-to-muscle and the axillary lymph node-to-liver ratios. The slice data were processed into 3D images using the MIP method with the same window and level (window 3500 and level 2300) (Advantage Windows, General Electric Medical System). Two board-certified radiologists separately read a set of stereo views of 3D-MRL for all studies, and estimated the visualization of the thoracic duct. After imaging, the mice were sacrificed by carbon dioxide inhalation.
# In this example, the PAMAM-G8 contrast agent is compared to GPDM. PAMAM-G8 was prepared as described in Example 2, and GPDM was purchased (Schering AG, Berlin, Germany). Animal models, administration of the contrast agents, and 3D-micro-MRL were as described in Example 2.
# [2] = system: lymphatic vessels and lymph nodes of disease model mice; assay: 3D-micro-MRL in lymphatic disease models (Concanavalin A lymphangitis, IL-15 transgenic); format: in vivo; settings: for Visualization of lymph nodes in lymphoproliferation/lymphoma: 45 minutes after injection
# Experimental: To generate a lymphangitis model, Concanavalin A ([…]) (Sigma, St. Louis, Mo.) was injected intravenously into C57BL6 mice (NCI, Frederick, Md.) 24 hours before MRI was performed.
# Eight- to 10-month old IL-15 transgenic mice (on a C57BL6 background) were used as a chronic lymphoproliferative/neoplastic disease model because they manifested selective expansion of NK, CD8^+NK-T, γδIELs, and CD8 T cells in the periphery. Most of the lymph nodes collected from an aged IL-15 transgenic mouse were enlarged in size. The lesion of proliferated monoclonal lymphocytes often involved the lung and the subcutaneous lymphatic tissue.
# as §1, §2
# [3] = system: axillary lymph nodes and their lymphatic vessels; assay: Dynamic 3D-MR lymphangiography, effect of contrast agent size (Example 4); format: in vivo, athymic nu/nu mice; settings: for Visualization of axillary lymph nodes and their lymphatic vessels: 6-36 minutes post-injection into mammary gland; for Depiction of lymphatic vessels / Signal intensity within the axillary lymph nodes in comparison to G6 and G8 / Signal intensity of adjacent muscle in comparison to G6 and G8: mouse, in vivo; for Signal intensity within the axillary lymph node (enhancement ratio, lymph node / adjacent muscle): 0.15 μmolGd/5 μL
# Experimental: Mice were anesthetized with 1.15 mg sodium pentobarbital (Dainabot, Osaka, Japan) by intraperitoneal injection. Then 0.15 μmolGd/5 μL of all nano-size contrast agents or 0.45 μmolGd/5 μL of Gd-[DTPA]-dimeglumine were injected into normal mammary glands or mammary tissue surrounding a tumor. Dynamic MR images were obtained using a 1.5-Tesla superconductive magnet unit (Signa LX, General Electric Medical System, Milwaukee, Wis.) with a birdcage type coil of 3 cm diameter fixed by a custom-made coil holder. The mice were wrapped with gauze to conserve their body temperature and were placed at the center of the coils.
# In order to evaluate the effect of contrast agent molecular size on the ability to visualize the lymphatics and lymph nodes of athymic nu/nu mice, thirty five non-tumor bearing nu/nu mice were divided into seven groups (n=5). The mice were evaluated with 3D-fast spoiled gradient echo (3D-fastSPGR (efgre3d package; Signa Horizon, GE); repetition time/echo time 19.2/7.2 msec; inversion time 47 msec; bandwidth 31.2 kHz, flip angle 30°, 4 excitations; 36 slice encoding steps; scan time 4 minutes 49 seconds) with chemical shift fat-suppression at 6, 12, 18, 24, 30, and 36 minutes post-injection of each contrast agent. The coronal images were reconstructed with 0.6-mm section thickness every 0.3-mm. The field of view was 8×4 cm and the size of the matrix was 512×256. The slice data were processed into 3D images using the maximum intensity projection (MIP) method with the same window and level (window 3500 and level 2100) (Advantage Windows, General Electric Medical System). The enhancement ratio was calculated by taking the average signal intensity in the axillary lymph node and dividing it by the signal intensity in the adjacent muscle.
# [4] = in vivo
# [5] = Example 2, normal mice, 10-45 min after injection
Substance,Number of Mice in Which the Thoracic Duct was Visualized/Number of Mice Examined ([1]; 10 min),Number of Mice in Which the Thoracic Duct was Visualized/Number of Mice Examined ([1]; 20 min),Number of Mice in Which the Thoracic Duct was Visualized/Number of Mice Examined ([1]; 30 min),Number of Mice in Which the Thoracic Duct was Visualized/Number of Mice Examined ([1]; 45 min),Axillary lymph node-to-background (muscle) signal intensity ratio [1],Axillary lymph node-to-liver signal intensity ratio [1],"Visualization of lymph nodes in lymphoproliferation/lymphoma ([2]; IL-15 transgenic mice, FIG. 13)",Visualization of axillary lymph nodes and their lymphatic vessels [3],Depiction of lymphatic vessels [3],Signal intensity within the axillary lymph nodes in comparison to G6 and G8 [3],"Visualization of deep lymph nodes [1, 5]",also measured
DAB-Am-128-(Gd-1B4M)128 dendrimer conjugate [DAB-G5],3/5,2/5,0/5,0/5,significantly higher than that obtained with either PAMAM-G8 or PAMAM-G4,"nearly equivalent, but were significantly higher than that measured with GPDM",considerable multiple lymph node swellings with central filling defects,superior to the G2 and G4 PAMAM dendrimers; also recorded: better contrast than PAMAM dendrimer-based agents of similar sizes,neither agent depicted lymphatic vessels,lower signal intensities,–,–
Gadomer-17 [reference compound],2/5,2/5,1/5,1/5,significantly higher than that acquired with GPDM,"nearly equivalent, but were significantly higher than that measured with GPDM",–,superior to the G2 and G4 PAMAM dendrimers; also recorded: better contrast than PAMAM dendrimer-based agents of similar sizes,neither agent depicted lymphatic vessels,lower signal intensities,"allowed visualization of the deep lymph nodes, albeit not as clearly and brightly as the dendrimer-based agents",Signal intensity of adjacent muscle in comparison to G6 and G8 [3]: significantly higher than those measured with G6 and G8; Clearance from the body ([4]; iv): rapidly cleared from the body
PAMAM-G4D-(Gd-1B4M)64 dendrimer conjugate,4/5,4/5,3/5,2/5,significantly higher than that measured with Gadomer-17 and GPDM,"significantly higher than that acquired with PAMAM-G8, DAB G-5, or Gadomer-17",–,able to depict the lymph nodes only faintly and then only up to 12 minutes post-injection,–,–,–,Signal intensity of adjacent muscle in comparison to G6 and G8 ([3]; listed as G4): significantly higher than those measured with G6 and G8; also recorded: higher signal in the adjacent muscle; Signal intensity within the axillary lymph nodes in comparison to G6 and G8 ([3]; listed as G4): lower signal intensities; also recorded: significantly lower signal; Survival in the blood circulation [4]: short survival in the blood circulation due to a rapid renal excretion without significant retention in other organs
PAMAM-G7D-(Gd-1B4M)1024 dendrimer conjugate [PAMAM-G8],10/10,10/10,10/10,10/10,significantly higher than that measured with Gadomer-17 and GPDM,"nearly equivalent, but were significantly higher than that measured with GPDM",considerable multiple lymph node swellings with central filling defects,visualized at all time points in all 10 mice,–,–,enabled most of the deep lymph nodes to be visualized,"Visualization of lymphatic vessels ([1]; Example 2): better visualized with PAMAM-G8 compared to all other agents examined; Visualization by a radiologist of the thoracic duct ([1]; Example 2, all times after administration): in all mice at all times after administration; Visualization of deep lymph nodes ([1]; Example 3, FIG. 15): most deep lymph nodes throughout the body were visualized; Visualization of the thoracic duct ([1]; Example 3, FIG. 15): visualized in all six mice; Visualization of lymphatic vessels in lymphangitis ([2]; Concanavalin A lymphangitis model, FIG. 12): demonstrated the remarkable dilation of the lymphatic vessels throughout the body, especially in the liver; Visualization of dilation of lymphatic vessels ([2]; IL-15 transgenic mice, FIG. 13): best visualized with PAMAM-G8; Signal intensity within the axillary lymph node (enhancement ratio, lymph node / adjacent muscle) ([3]; 6 minutes post-injection): 1.7±0.2; Signal intensity within the axillary lymph node (enhancement ratio, lymph node / adjacent muscle) ([3]; 12 minutes post-injection): 2.3±0.2; Leakage out of the lymphatic vessels [4]: minimal leakage out of the lymphatic vessels"
